Reference: EP2228050A1, “Use of gamma-aminobutyric acid as a depigmenting agent” (priority 2009, dated 2010)
Where “and” joins values, the source holds several entries; their conditions need not be identical. Equal values may be shown once. Read-outs that look alike come from different tables or passages of the source.

Tests used:
[1] = test system: mélanocytes humains normaux; test: Cytotoxicity: viability of melanocytes by spectrophotometric assay of intracellular phosphatase activity (p-nitrophenyl phosphate, 405 nm)
Protocol: On effectue la détermination sur des mélanocytes humains normaux obtenus à partir d'un sujet jeune (4 ans). Pour les réalisations des essais, les cellules ont été cultivées jusqu'à l'obtention de mono couches confluentes.
Les cellules ont mises en incubation pendant 72 heures en l'absence (essai témoin) ou en présence de concentrations croissantes de composé E ou de chacun des produits essayés. Pour le composé E, on a essayé des concentrations de 0.003; 0.03; 0.075; 0.15; 0.5; 0.75; 1.5 et 3% (v/v) et pour le produit selon l'invention : 0.01; 0.1; 0.25; 0.5; 1; 2.5; 5; 10% (v/v).
A titre de comparaison, on a préparé une solution à 10% d'acide kojique et une solution d'acide lactique à 30% (composition E).
Les préparations essayées ont été ensuite diluées directement dans le milieu d'incubation des mélanocytes.
A la fin de la période d'incubation, la viabilité des cellules a été évaluée par une méthode spectrophotométrique de dosage de l'activité des phosphatases intracellulaires.
Selon la méthode de Yan T. et al. (Anal. Biochem. 24 (1996) 103-108), on dose le p-nitrophénol résultant de la transformation du phosphate de p-nitrophényle par les phosphatases intra-cellulaires des cellules viables.
L'absorbance du p-nitrophénol libéré à 405 nm est directement proportionnelle au nombre des cellules viables présentes dans le puits de culture.

[2] = test system: mélanocytes humains normaux; test: Melano-modulating effect: intracellular melanin / protein ratio in monolayer melanocytes (step 1 single actives, step 2 complex); type: cell-based; conditions: 72 h
Protocol: Ces essais ont été menés sur un modèle de mélanocytes humains normaux cultivés en mono couche.
Les mélanocytes humains normaux ont été mis en incubation pendant 72 heures en l'absence (témoin) ou en présence d'un produit de référence (acide kojique 250 µM)) ou de concentrations croissantes des produits actifs essayés.
Dans cette méthode, on dose le rapport mélanine/protéines en pourcentage du témoin. On a déterminé également les valeurs obtenues avec le solvant seul et une solution d'acide kojique à 250 µM dans ce solvant(DMSO) pris comme substance de référence.
Tableau II Véhicule (DMSO) et produit de référence
On a utilisé des mélanocytes humains normaux issus d'un sujet jeune âgé de 4 ans. On les a cultivé en monocouche jusqu'à confluence de 80%.
On a employé comme inhibiteur de tyrosinase de référence, l'acide kojique à 250 µM.
Les mélanocytes ont été mis en incubation pendant 72 heures à 37°C sous atmosphère humide et sous 5% de CO2 en l'absence (témoin) ou en présence d'acide kojique ou de concentrations croissantes de principes actifs à l'essai (0.1; 0.5 1%)
A la fin de la période d'incubation, le contenu intracellulaire en mélanine a été quantifié après lyse cellulaire par mesure spectrophotométrique à 405nm.
A la fin de la période d'incubation, les protéines contenues dans les lysats cellulaires ont été dosés par une méthode spectrocolorimétrique faisant appel au bleu de Coomassie (selon la méthode de Bradford M. Anal. Biochem. 72 (1976) 248-254).
Les résultats sont donnés sous forme de pourcentage de mélanine par rapport aux témoins (moyenne + ou- déviation standard SD) calculés à partir de valeurs obtenues en µg de mélanine intracellulaire par mg de protéines totales du tapis cellulaire.
On a déterminé la significativité statistique des différences constatées entre les conditions des « témoin » et « Produits à l'essai » selon une analyse de variance à un seul facteur (ANOVA) suivi d'un test de Holm-Sidak (* = […] < 0,05)

## NCCCC(=O)O [A, acide gamma-aminobutyrique]
[1]; human, 4320 min
  dose à partir de laquelle un effet cytotoxique est détectable: 0.5%

## O=c1cc(CO)occ1O [Acide Kojique, acide kojique]
[2]; Melanocyte, step 1, Acide Kojique 250 µM in DMSO, mean, * p<0,05, read-out: mélanine / protéines (% du témoin) Moyenne
  activity at 250 µM: 77.4%
[2]; Melanocyte, step 2, Acide kojique 250 µM, mean (controls mean 119,2), * p<0,05, read-out: Mélanines/ protéines (% du témoin) Moyenne
  activity at 250 µM: 101%
[2]; Melanocyte, step 2, Acide kojique 250 µM, mean normalised to controls = 100, read-out: % témoin
  activity at 250 µM: 84.5%
[2]; Melanocyte, step 2, Acide kojique 250 µM, single replicate (controls mean 119,2), read-out: Mélanines/ protéines (% du témoin)
  activity at 250 µM: 106%
[2]; Melanocyte, step 2, acide kojique 250 µM, p < 0.05, read-out: réduction du contenu intracellulaire en mélanine
  inhibition at 250 µM: 15.5%
[2]; step 2, Acide kojique 250 µM, single replicate (controls mean 119,2), 4320 min, 250 µM
  Mélanines/ protéines (% du témoin): 93,2 % du témoin and 102,8 % du témoin and 94,1 % du témoin and 97,9 % du témoin

## CC(O)C(=O)O (centres unmarked) [Actif E, acide lactique]
[1]; 72 h, detectable = less than 80 % viable cells
  dose à partir de laquelle un effet cytotoxique est détectable: 0.03%
